Common to all, as to type: functional, cell-based
Test [1] deals with LX-2. Put plainly: Antifibrotic activity against human LX-2 cells overexpressing human Adenosine receptor A2a assessed as downregulation of alpha-SMA expression at 10 uM incubated for 18 hrs by Western blotting analysis. A general note: In western blotting, separated proteins are transferred to a membrane and probed.
Test [2] concerns LX-2. Put plainly: Antifibrotic activity against human LX-2 cells overexpressing human Adenosine receptor A2a assessed as downregulation of fibronectin expression at 10 uM incubated for 18 hrs by Western blotting analysis.
The subject of test [3] is LX-2. Put plainly: Antifibrotic activity against human LX-2 cells overexpressing human Adenosine receptor A2a assessed as downregulation of COL1A1 expression at 10 uM incubated for 18 hrs by Western blotting analysis.
For test [4], the system named is LX-2. Put plainly: Antifibrotic activity against human LX-2 cells overexpressing human Adenosine receptor A2a assessed as downregulation of PKA phosphorylation at Thr197 residue at 10 uM incubated for 18 hrs by Western blotting analysis.
In test [5] the target is Adenosine receptor A2a (Homo sapiens, UniProt P29274). Briefly: Antagonist activity at human Adenosine receptor A2a transfected in HEK293 cells co-expressing CRE-luciferase plasmid assessed as reduction in CRE promoter activity by measuring effective concentration incubated for 18 hrs by luciferase based CRE reporter assay. On the technique in general: In a reporter assay the amount or activity of a reporter protein is the signal.

Each structure is given as a SMILES string. Activity calls are given as the source filed them. The calls are words filed in the database; no cut-off is given here.

For two compounds, Activity and EC50 results are on record in ChEMBL document CHEMBL5614411, “Exploring novel A2AAR antagonists: Design, synthesis, and evaluation of 2,6,9-trisubstituted purine derivatives as promising antifibrotic agents” (Bioorg Med Chem, 2024).

Chain of Adenosine receptor A2a (P29274 whole entry): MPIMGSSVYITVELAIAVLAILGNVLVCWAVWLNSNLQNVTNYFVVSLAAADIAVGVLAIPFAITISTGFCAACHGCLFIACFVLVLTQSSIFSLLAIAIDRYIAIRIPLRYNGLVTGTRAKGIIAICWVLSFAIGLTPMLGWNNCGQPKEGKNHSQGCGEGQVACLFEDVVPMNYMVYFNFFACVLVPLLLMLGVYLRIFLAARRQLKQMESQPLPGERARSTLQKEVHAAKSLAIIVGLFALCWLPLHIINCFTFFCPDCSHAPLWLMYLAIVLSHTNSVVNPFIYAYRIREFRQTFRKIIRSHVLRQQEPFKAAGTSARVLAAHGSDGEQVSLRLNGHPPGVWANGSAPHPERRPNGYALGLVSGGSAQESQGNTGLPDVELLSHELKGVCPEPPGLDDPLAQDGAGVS

With `CNc1nc(C#Cc2ccccc2)nc2c1ncn2Cc1cc(OC)c(OC)c(OC)c1`, the result in test [1], in test [2], in test [3] and in test [4] was inactive.

As to `CNc1nc(C#Cc2ccccc2)nc2c1ncn2Cc1ccccc1`, the result in test [1], in test [2], in test [3] and in test [4] was Active. Moreover, in test [5], the EC50 (in general, the midpoint of the concentration-response curve) stood at 14.6 µM.
